Tests used:
Format in all cases: biochemical
[1] = biological target: rhVAP-1 (Homo sapiens (Human), UniProt Q16853); assay: VAP-1 fluorometric assay (Amplex Red/HRP, benzylamine substrate); details: class symbols, ranges defined in μM
Experimental: The capability of compounds described herein to inhibit the enzymatic activity of vascular adhesion protein-1 (VAP-1) was determined by fluorometric assay. The assay procedure provided by R&D Systems was modified slightly for use as an inhibitor screening assay. The assay measured the H2O2 generated from the oxidative deamination of benzylamine by rhVAP-1 by converting Amplex® Red to the fluorescent product, resorufin, via horseradish peroxidase (HRP) and H2O2. Reaction buffer was 10 mM NaHCO3, pH 7.4. A standard curve was prepared by serially diluting H2O2 in reaction buffer. A 10 μM solution of resorufin was prepared in reaction buffer and was dispensed to 2 wells. These wells served as positive control for maximum fluorescence. Reaction buffer was added to the individual wells so that the final volume in each well was 100 μL. Amplex Red was diluted to 1 mM in reaction buffer. A 10 U stock of HRP was prepared in reaction buffer. A reaction cocktail was prepared by mixing equal parts 1 mM Amplex Red with 10 U HRP with 3 parts reaction buffers. The reaction cocktail was added to the appropriate wells, so that that final concentration in the well was 0.05 mM Amplex Red and 0.5 U HRP. A 200 μM solution of benzylamine was prepared in reaction buffer. Benzylamine was added to the appropriate wells so that the final concentration was 50 μM. Inhibitors were diluted in DMSO to 20× and distributed to the appropriate wells. LJP-1207 served a positive control. rhVAP-1 was purchased from R&D Systems. The concentration used for each lot was determined so that the activity was equal to the first lot. Two wells were left blank as controls. The plate was incubated for 30 minutes at 37° C., protected from light under foil. The plate was read at 530/35 emission and 590/35 excitation. Data processing was performed using Excel and Prism software.
The capability of compounds described herein to inhibit the enzymatic activity of vascular adhesion protein-1 (VAP-1) was determined by fluorometric assay. The assay procedure provided by R&D Systems was modified slightly for use as an inhibitor screening assay. The assay measured the H2O2 generated from the oxidative deamination of benzylamine by rhVAP-1 by converting Amplex® Red to the fluorescent product, resorufin, via horseradish peroxidase (HRP) and H2O2. Amplex Red, HRP, Benzylamine, inhibitors (with DMSO as vehicle, 0.5% v/v) and rhVAP-1 were added to the wells. Assay was conducted in 10 mM NaHCO3, pH 7.4. A standard curve was prepared by serially diluting H2O2 in reaction buffer. The plate was incubated for 30 minutes at 37° C., protected from light under foil. The plate was read at 530/35 emission and 590/35 excitation. Data processing was performed using Prism software.

[2] = biological target: rhMAO-B (Homo sapiens (Human), UniProt P27338); assay: MAO-Glo assay, MAO-B inhibition
Experimental: (§1) The capability of compounds described herein to inhibit MAO was determined using a modified Promega MAO-Glo™ assay kit. The substrate ((4S)-4,5-dihydro-2-(6-hydroxybenzothiazolyl)-4-thiazolecarboxylic acid) was converted by MAO to produce methyl ester luciferin. The luciferin was then converted by luciferase to produce oxyluciferin and light. The light was measured using a luminescence setting on the plate reader. A standard curve was prepared by serially diluting luciferin in reaction buffer. The standard kit reaction buffer was used—100 mM HEPES (pH 7.5), 5% glycerol. The substrate was dispensed into the wells so that the final concentration for MAO-A inhibition assay would be 10 μM and MAO-B inhibition assay would be […]. Inhibitors were diluted in DMSO to 4× and distributed to the appropriate wells. Clorgyline and Deprenyl served as positive controls. rhMAO-A and rhMAO-B were purchased from Sigma. MAO-A or MAO-B was added to the appropriate wells. The plate was incubated for 1 hour, at room temperature with gentle shaking (90 rpm). The detection agent was added at equal volume (48 μL detection agent to 48 μL reaction). The plate was incubated for 20 minutes, at room temperature with gentle shaking (90 rpm). The plate luminescence was read. Data processing was performed using Prism software.
(§2) The capability of compounds described herein to inhibit MAO was determined using a modified Promega MAO-Glo™ assay. Test compounds, substrate and enzyme were incubated per manufacturer instructions for 1 hour, at room temperature with gentle shaking (90 rpm) before addition of detection agent. The detection agent was added at equal volume (48 μL detection agent to 48 μL reaction). The plate was incubated for 20 minutes, at room temperature with gentle shaking (90 rpm). The plate luminescence was read. Data processing was performed using Prism software.

[3] = biological target: rhMAO-A (Homo sapiens (Human), UniProt P21397); assay: MAO-Glo assay, MAO-A inhibition
Experimental: as §1, §2

[4] = class symbols, ranges defined in μM

Sequence of rhMAO-A (P21397 whole entry): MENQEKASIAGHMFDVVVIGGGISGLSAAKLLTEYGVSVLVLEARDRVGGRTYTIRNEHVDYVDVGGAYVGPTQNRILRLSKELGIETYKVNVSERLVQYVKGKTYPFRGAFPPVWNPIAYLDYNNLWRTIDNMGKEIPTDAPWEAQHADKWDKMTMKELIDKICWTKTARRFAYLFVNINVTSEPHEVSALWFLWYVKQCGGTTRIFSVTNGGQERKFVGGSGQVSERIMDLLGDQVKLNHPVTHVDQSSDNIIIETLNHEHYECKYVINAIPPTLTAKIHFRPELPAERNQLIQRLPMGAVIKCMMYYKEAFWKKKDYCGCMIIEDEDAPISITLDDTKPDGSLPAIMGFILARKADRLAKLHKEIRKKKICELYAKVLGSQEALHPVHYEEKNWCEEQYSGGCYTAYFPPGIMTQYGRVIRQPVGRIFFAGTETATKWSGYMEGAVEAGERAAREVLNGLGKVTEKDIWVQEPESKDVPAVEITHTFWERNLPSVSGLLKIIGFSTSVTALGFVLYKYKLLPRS
Sequence of rhMAO-B (P27338 whole entry): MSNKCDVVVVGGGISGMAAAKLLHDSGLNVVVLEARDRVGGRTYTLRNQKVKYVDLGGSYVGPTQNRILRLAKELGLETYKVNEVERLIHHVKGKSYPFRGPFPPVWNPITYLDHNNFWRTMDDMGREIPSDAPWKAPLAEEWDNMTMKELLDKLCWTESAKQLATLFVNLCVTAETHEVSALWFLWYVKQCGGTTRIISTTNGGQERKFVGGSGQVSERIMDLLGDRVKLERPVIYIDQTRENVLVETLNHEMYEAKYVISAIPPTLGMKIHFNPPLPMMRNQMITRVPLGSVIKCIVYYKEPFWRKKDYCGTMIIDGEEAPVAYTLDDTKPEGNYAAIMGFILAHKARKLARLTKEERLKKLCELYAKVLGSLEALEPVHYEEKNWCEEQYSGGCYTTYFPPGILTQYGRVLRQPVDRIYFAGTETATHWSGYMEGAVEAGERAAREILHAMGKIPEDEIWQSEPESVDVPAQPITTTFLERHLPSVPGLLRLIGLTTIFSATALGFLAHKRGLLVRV
Sequence of rhVAP-1 (Q16853 whole entry): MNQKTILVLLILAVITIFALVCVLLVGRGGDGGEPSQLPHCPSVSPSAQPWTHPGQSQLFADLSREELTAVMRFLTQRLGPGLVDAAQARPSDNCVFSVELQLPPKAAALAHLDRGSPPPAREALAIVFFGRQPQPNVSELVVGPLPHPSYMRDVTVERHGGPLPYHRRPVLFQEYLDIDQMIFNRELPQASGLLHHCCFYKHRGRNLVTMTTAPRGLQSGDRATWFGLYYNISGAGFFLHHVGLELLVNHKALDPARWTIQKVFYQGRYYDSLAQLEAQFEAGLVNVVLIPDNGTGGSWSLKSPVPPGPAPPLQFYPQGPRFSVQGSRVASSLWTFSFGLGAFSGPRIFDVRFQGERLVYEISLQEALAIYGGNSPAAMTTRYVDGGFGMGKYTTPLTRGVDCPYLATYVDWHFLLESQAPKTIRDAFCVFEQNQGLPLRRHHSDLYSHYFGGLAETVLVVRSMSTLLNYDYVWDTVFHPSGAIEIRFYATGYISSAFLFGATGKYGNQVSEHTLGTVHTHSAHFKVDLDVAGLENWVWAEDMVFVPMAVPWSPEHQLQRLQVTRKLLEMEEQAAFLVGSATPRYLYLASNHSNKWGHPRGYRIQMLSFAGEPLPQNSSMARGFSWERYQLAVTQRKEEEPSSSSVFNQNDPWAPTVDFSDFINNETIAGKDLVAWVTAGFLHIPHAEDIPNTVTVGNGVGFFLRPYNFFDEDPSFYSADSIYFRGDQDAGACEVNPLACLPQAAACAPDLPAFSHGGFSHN

SMILES	IC50 [1]	IC50 ([2]; bound printed in cell)	IC50 ([3]; bound printed in cell)	IC50 [2, 4]	IC50 [3, 4]	IC50 ([2]; number printed in cell)
COc1ccc(CNc2nc3ccc(OC/C(=C/F)CN)cc3o2)cc1 [Example 24, (E)-6-((2-(aminomethyl)-3-fluoroallyl)oxy)-N-(4-methoxybenzyl)benzo[d]oxazol-2-amine 4-methylbenzenesulfonate]	< 0.1 µM	–	–	–	10 to 30 µM	0.637 µM
COc1ncccc1CNc1nc2ccc(OC/C(=C\F)CN)cc2o1 [Example 75, (Z)-6-((2-(aminomethyl)-3-fluoroallyl)oxy)-N-((2-methoxypyridin-3-yl)methyl)benzo[d]oxazol-2-amine 4-methylbenzenesulfonate]	< 0.1 µM	–	> 50 µM	0.1 to 1 µM	–	–
Cc1cc(CNc2nc3ccc(OC/C(=C\F)CN)cc3o2)cc(C)n1 [Example 60, (Z)-6-((2-(aminomethyl)-3-fluoroallyl)oxy)-N-((2,6-dimethylpyridin-4-yl)methyl)benzo[d]oxazol-2-amine bis(4-methylbenzenesulfonate)]	< 0.1 µM	–	> 50 µM	1 to 10 µM	–	–
CNC(=O)CN(Cc1ccccc1)c1nc2ccc(OC/C(=C/F)CN)cc2o1 [Example 53, (E)-2-((6-((2-(aminomethyl)-3-fluoroallyl)oxy)benzo[d]oxazol-2-yl)(benzyl)amino)-N-methylacetamide 4-methylbenzenesulfonate]	< 0.1 µM	> 50 µM	> 50 µM	–	–	–
Cc1ncccc1CNc1nc2ccc(OC/C(=C\F)CN)cc2o1 [Example 69, (Z)-6-((2-(aminomethyl)-3-fluoroallyl)oxy)-N-((2-methylpyridin-3-yl)methyl)benzo[d]oxazol-2-amine 4-methylbenzenesulfonate]	< 0.1 µM	–	> 50 µM	1 to 10 µM	–	–
NC/C(=C/F)COc1ccc2nc(NCc3cccnc3)oc2c1 [Example 58, (Z)-6-((2-(aminomethyl)-3-fluoroallyl)oxy)-N-(pyridin-3-ylmethyl)benzo[d]oxazol-2-amine bis(4-methylbenzenesulfonate)]	1 to 10 µM	–	> 50 µM	1 to 10 µM	–	–
NC/C(=C\F)COc1ccc2nc(NCc3ccc(C(F)(F)F)nc3)oc2c1 [Example 84, (E)-6-((2-(aminomethyl)-3-fluoroallyl)oxy)-N-((6-(trifluoromethyl)pyridin-3-yl)methyl)benzo[d]oxazol-2-amine 4-methylbenzenesulfonate]	< 0.1 µM	–	> 40 µM	1 to 10 µM	–	–
NC/C(=C\F)COc1ccc2nc(N3CCS(=O)(=O)CC3)oc2c1 [Example 90, (E)-4-(6-((2-(aminomethyl)-3-fluoroallyl)oxy)benzo[d]oxazol-2-yl)thiomorpholine 1,1-dioxide 4-methylbenzenesulfonate]	< 0.1 µM	–	> 50 µM	1 to 10 µM	–	–
NC/C(=C/F)COc1ccc2nc(N3CCC(O)CC3)oc2c1 [Example 77, (Z)-1-(6-((2-(aminomethyl)-3-fluoro-allyl)oxy)benzo[d]oxazol-2-yl)piperidin-4-ol 4-methylbenzenesulfonate]	< 0.1 µM	> 50 µM	–	–	1 to 10 µM	–

The remaining lines, values ahead:

IC50 [1]	IC50 ([2]; bound printed in cell)	IC50 ([3]; bound printed in cell)	IC50 [2, 4]	IC50 [3, 4]	IC50 ([2]; number printed in cell)	SMILES
< 0.1 µM	> 50 µM	> 50 µM	–	–	–	CCCCc1nc2cc(OC/C(=C/F)CN)ccc2n1C [Example 11, (E)-2-(((2-butyl-1-methyl-1H-benzo[d]imidazol-5-yl)oxy)methyl)-3-fluoroprop-2-en-1-amine]
< 0.1 µM	–	–	0.1 to 1 µM	1 to 10 µM	–	CCCCc1nc2ccc(OC/C(=C\F)CN)cc2o1 [Example 19, (Z)-2-(((2-butylbenzo[d]oxazol-6-yl)oxy)methyl)-3-fluoroprop-2-en-1-amine 4-methylbenzenesulfonate]
< 0.1 µM	–	–	1 to 10 µM	1 to 10 µM	–	CCCNc1nc2ccc(OC/C(=C\F)CN)c(F)c2s1 [Example 14, (Z)-6-((2-(aminomethyl)-3-fluoroallyl)oxy)-7-fluoro-N-propylbenzo[d]thiazol-2-amine 4-methylbenzenesulfonate]
< 0.1 µM	–	–	0.1 to 1 µM	10 to 30 µM	–	CCCCc1nc2ccc(NC/C(=C/F)CN)cc2o1 [Example 17, (E)-N1-(2-butylbenzo[d]oxazol-6-yl)-2-(fluoromethylene)propane-1,3-diamine]
< 0.1 µM	–	–	0.1 to 1 µM	10 to 30 µM	–	CCCC(C)c1nc2ccc(OC/C(=C/F)CN)cc2o1 (stereo not drawn) [Example 43, (E)-3-fluoro-2-(((2-(pentan-2-yl)benzo[d]oxazol-6-yl)oxy)methyl)prop-2-en-1-amine 4-methylbenzenesulfonate]
< 0.1 µM	–	–	< 0.1 µM	0.1 to 1 µM	–	CCCCc1nc2ccc(OCCC(=CF)CN)cc2o1 [Example 38, 4-((2-butylbenzo[d]oxazol-6-yl)oxy)-2-(fluoromethylene)butan-1-amine 4-methylbenzenesulfonate]
< 0.1 µM	–	–	< 0.1 µM	< 0.1 µM	–	CCCCc1nc2ccc(OC/C(=C/F)CN)c(Br)c2s1 [Example 7, (E)-2-(((7-bromo-2-butylbenzo[d]thiazol-6-yl)oxy)methyl)-3-fluoroprop-2-en-1-amine]
< 0.1 µM	–	> 50 µM	1 to 10 µM	–	–	COCCNc1nc2ccc(OC/C(=C\F)CN)cc2o1 [Example 61, (Z)-6-((2-(aminomethyl)-3-fluoroallyl)oxy)-N-(2-methoxyethyl)benzo[d]oxazol-2-amine 4-methylbenzenesulfonate]
< 0.1 µM	–	–	1 to 10 µM	1 to 10 µM	–	COCCCNc1nc2ccc(OC/C(=C\F)CN)cc2o1 [Example 81, (Z)-6-((2-(aminomethyl)-3-fluoroallyl)oxy)-N-(3-methoxypropyl)benzo[d]oxazol-2-amine 4-methylbenzenesulfonate]
< 0.1 µM	–	–	< 0.1 µM	1 to 10 µM	–	CCCCc1nc2cc(OC/C(=C/F)CN)ccc2o1 [Example 8, (E)-2-(((2-butylbenzo[d]oxazol-5-yl)oxy)methyl)-3-fluoroprop-2-en-1-amine 4-methylbenzenesulfonate]
< 0.1 µM	–	–	1 to 10 µM	1 to 10 µM	–	NC/C(=C/F)COc1ccc2nc(NCCC(Cl)CCO)oc2c1 (stereo not drawn) [Example 93, (Z)-5-((6-((2-(aminomethyl)-3-fluoroallyl)oxy)benzo[d]oxazol-2-yl)amino)-3-chloropentan-1-ol 4-methylbenzenesulfonate]
< 0.1 µM	> 50 µM	> 50 µM	–	–	–	CNC(=O)CN(C)c1nc2ccc(OC/C(=C\F)CN)cc2o1 [Example 72, (Z)-2-((6-((2-(aminomethyl)-3-fluoroallyl)oxy)benzo[d]oxazol-2-yl)(methyl)amino)-N-methylacetamide 4-methylbenzenesulfonate]
< 0.1 µM	–	–	< 0.1 µM	10 to 30 µM	–	NC/C(=C\F)COc1ccc2nc(CCCCc3ccccc3)oc2c1 [Example 35, 4-methylbenzenesulfonate]
< 0.1 µM	–	–	1 to 10 µM	1 to 10 µM	–	NC/C(=C\F)COc1ccc2nc(NCCCO)oc2c1 [Example 70, (E)-3-((6-((2-(aminomethyl)-3-fluoroallyl)oxy)benzo[d]oxazol-2-yl)amino)propan-1-ol 4-methylbenzenesulfonate]

— patent US20230295140A1, “INHIBITORS OF VAP-1” (Acucela Inc., priority 2021, published 2023)
